≈ marks a conversion by molar mass, not a printed value. Calls of active or inactive are those of the source. The calls are words filed in the database; no cut-off is given here.
Columns and labels:
F2002 cell line [1] = assay: Compound was tested in vitro for cytotoxic activity against HCMV (Human cytomegalovirus) in Flow 2002 cells; assay type: functional
F2002 cell line [2] = assay: Compound was tested in vitro for inhibitory activity against HCMV (Human cytomegalovirus) in Flow 2002 cells; assay type: functional, cell-based
[3] = Compound was tested for selectivity index of […]; assay type: functional
WI-38 [4] = assay: Compound was tested in vitro for inhibitory activity against HCMV (Human cytomegalovirus) in WI38 cells; assay type: functional, cell-based
WI-38 [5] = assay: Compound was tested in vitro for cytotoxic activity against HCMV (Human cytomegalovirus) in WI38 cells; assay type: functional
Human betaherpesvirus 5 [6] = assay: Compound was tested in vitro for inhibitory activity against HCMV (Human cytomegalovirus); assay type: functional, organism-based
Human betaherpesvirus 5 [7] = assay: Compound was tested in vitro for cytotoxic activity against HCMV (Human cytomegalovirus); assay type: functional
Human betaherpesvirus 5 [8] = assay: Compound (up to 100 ug/mL) was tested in vitro for inhibitory activity against HCMV (Human cytomegalovirus); Inactive; assay type: functional, organism-based

Which CC50 (F2002 cell line [1]) does the source give for `Nc1ccn(C2COCC2O)c(=O)n1` (stereo not drawn) here?
Its CC50 is 100 µg/mL (≈ 507 µM).

What about the IC50 (F2002 cell line [2]) of the same compound?
Its IC50 is over 100 µg/mL.

With `O=c1ccn(C2COCC2OCP(=O)(O)O)c(=O)[nH]1` (stereo not drawn) as the compound, how does the CC50 (F2002 cell line [1]) read?
The CC50 was over 100 µg/mL.

What about the IC50 (F2002 cell line [2]) of the same compound?
The IC50 was over 100 µg/mL.

Which CC50 (F2002 cell line [1]) does the source give for `Nc1ccn([C@@H]2COCC2O)c(=O)n1` (stereo partly drawn) here?
Its CC50 is 100 µg/mL (≈ 507 µM).

What about the IC50 (F2002 cell line [2]) of the same compound?
Its IC50 is 3 µg/mL (≈ 15.2 µM).

What about the Selectivity index [3] of the same compound?
The Selectivity index was 33.

For `Nc1ncnc2c1ncn2[C@@H]1COCC1O` (stereo partly drawn), which CC50 (F2002 cell line [1]) is on record?
The CC50 was over 100 µg/mL.

And the IC50 (F2002 cell line [2])?
The IC50 was over 100 µg/mL.

For `N.Nc1ccn(C2COCC2OCP(=O)(O)O)c(=O)n1` (stereo not drawn), which IC50 (WI-38 [4]) is on record?
The IC50 was over 100 µg/mL.

What about the CC50 (WI-38 [5]) of the same compound?
Its CC50 is over 100 µg/mL.

With `Nc1nc2c(ncn2COC(CO)CO)c(=O)[nH]1` [GANCICLOVIR] as the compound, how does the IC50 (Human betaherpesvirus 5 [6]) read?
Its IC50 is 0.1 µg/mL (≈ 0.392 µM).

And the CC50 (Human betaherpesvirus 5 [7])?
Its CC50 is over 100 µg/mL.

Which IC50 (WI-38 [4]) does the source give for `N.Nc1ccn([C@@H]2COCC2OCP(=O)(O)O)c(=O)n1` (stereo partly drawn) here?
Its IC50 is over 50 µg/mL.

What about the CC50 (WI-38 [5]) of the same compound?
The CC50 was over 100 µg/mL.

With `Nc1ncnc2c1ncn2C1COCC1OCP(=O)(O)O` (stereo not drawn) as the compound, how does the Activity (Human betaherpesvirus 5 [8]) read?
Its Activity is “inactive”.

Which IC50 (WI-38 [4]) does the source give for `Nc1ncnc2c1ncn2C1COCC1O` (stereo not drawn) here?
Its IC50 is over 50 µg/mL.

And the CC50 (WI-38 [5])?
Its CC50 is 100 µg/mL (≈ 452 µM).

What does the source list for `O=c1ccn([C@@H]2COCC2O)c(=O)[nH]1` (stereo partly drawn)?
CC50 (F2002 cell line [1]): > 100 µg/mL; IC50 (F2002 cell line [2]): > 100 µg/mL

With `O=c1ccn([C@@H]2COCC2OCP(=O)(O)O)c(=O)[nH]1` (stereo partly drawn) as the compound, how does the CC50 (F2002 cell line [1]) read?
The CC50 was 100 µg/mL (≈ 342 µM).

And the IC50 (F2002 cell line [2])?
The IC50 was over 100 µg/mL.

With `Nc1ncnc2c1ncn2[C@@H]1COCC1OCP(=O)(O)O` (stereo partly drawn) as the compound, how does the Activity (Human betaherpesvirus 5 [8]) read?
Its Activity is “inactive”.
